In PubChem BioAssay (NCI):
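How tested: cells in 96-well plates exposed to compound for 48 hours at five concentrations. TGI denotes the concentration required for complete inhibition of growth.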

Tests used:
Test in all cases: NCI anticancer screen, dose series, 48 h
[1] = test system: UACC-62 melanoma
[2] = test system: NCI/ADR-RES ovarian
[3] = test system: NCI-H226 lung
[4] = test system: UACC-257 melanoma
[5] = test system: U251 CNS
[6] = test system: OVCAR-4 ovarian
[7] = test system: HCT-116 colon
[8] = test system: HL-60(TB) leukemia
[9] = test system: NCI-H460 lung
[10] = test system: K-562 leukemia
[11] = test system: HOP-92 NSCLC

SMILES	TGI [1] [µM]	TGI [2] [µM]	TGI [3] [µM]	TGI [4] [µM]	TGI [5] [µM]	TGI [6] [µM]	TGI [7] [µM]	TGI [8] [µM]	TGI [9] [µM]	TGI [10] [µM]	TGI [11] [µM]
COc1ccc2c(c1)CN1C(=N2)CSC1c1cccc(Br)c1 (stereo not given)	53.1	> 100	61.2	> 100	> 100	> 100	> 100	22.3	> 100	> 100	> 100
CC1(C)N/C(=C\[N+](=O)[O-])C(C)(C)N1O	> 10	> 10	> 10	> 10	> 10	> 10	> 10	> 10	> 10	–	> 10
O=[N+]([O-])c1ccc(CSc2nncc3[nH]cnc23)cc1	> 100	> 100	> 100	> 100	> 100	> 100	> 100	> 100	–	> 100	67.1
COc1c(=O)cc2cc[nH]c3cc[nH]c1c23	> 100	> 100	> 100	> 100	> 100	> 100	> 100	> 100	> 100	> 100	> 100
O=C1/C(=C/C=C/c2ccccc2)CCC1CNc1ccccc1 (stereo not given)	> 100	> 100	> 100	> 100	> 100	> 100	> 50	16.7	> 100	> 35.6	> 95.1
OC(CC1CCCCN1)c1ccc2c(c1)oc1ccccc12 (stereo not given)	44.7	> 100	> 100	> 100	> 100	> 100	> 100	> 100	> 100	> 100	> 100
O=C1CS(=O)(=O)C(c2cccc(Oc3ccccc3)c2)N1c1ccc(Cl)cc1 (stereo not given)	24.6	> 100	68.3	44.3	56.1	> 100	22.6	> 100	35.8	63	23.8
CCOC(=O)CCC(NC(=O)c1ccc(Nc2nc3ccc(C(F)(F)F)cc3nc2-c2ccccc2)cc1)C(=O)OCC (stereo not given)	44.2	> 100	> 100	35.3	> 100	> 100	> 100	> 100	> 100	> 100	> 100
Cc1ccc(C2(O)CSC(=NC34CC5CC(CC(C5)C3)C4)N2C(P(=O)(O)O)P(=O)(O)O)cc1 (stereo not given)	–	68.3	> 100	–	> 100	> 100	67.5	> 100	> 100	> 100	> 100
CS(=O)(=O)C(C#N)c1nc2ccccc2nc1Cl (stereo not given)	> 100	> 100	> 100	> 100	> 100	> 100	> 100	> 100	> 100	> 100	> 100
COc1ccc2nc(N/N=C/c3sccc3C)cc(C)c2c1	27.1	55.1	42.6	32.3	73.5	99.5	23.8	47.6	28.2	> 100	26.4
Cc1ccc(C(=O)N/N=C(\N=Nc2cccc([N+](=O)[O-])c2)c2ccc(N(CCC#N)CCC#N)cc2C)cc1	> 100	> 95.4	> 26.2	52.7	> 100	> 100	> 74.8	> 43	> 100	> 100	> 100
N#Cc1c(-c2ccc(Cl)cc2)c2c(n(C3OC(CO)C(O)C(O)C3O)c1=S)CCCC2 (stereo not given)	–	> 100	> 100	> 100	> 100	> 100	> 100	58.9	> 100	> 100	> 100
COC(=O)[C@@H]1C=C[C@H](OC2OC(COC(C)=O)C(OC(C)=O)C(OC(C)=O)C2OC(C)=O)n2c(=O)n(-c3ccccc3)c(=O)n21 (stereo not given in full)	8.89	31.4	40.4	5.07	8.33	3.22	3.82	4.39	35.8	4.02	3.59
O=C(NC1=C(Cl)C(=O)c2ccccc2C1=O)c1ccccc1	90.7	39.1	69	–	81.1	> 100	32.2	> 100	> 100	54.3	39.9
Cc1cc(C)nc(NS(=O)(=O)c2ccc(Nc3c4ccccc4nc4ccc(C(=O)Nc5ccc(S(N)(=O)=O)cc5)cc34)cc2)n1	> 100	> 100	> 100	> 100	> 100	> 100	> 100	> 100	> 100	> 100	> 100
Cc1nc2ccc(Br)cc2c(=O)n1-c1nnc(C(C)(C)C)s1	> 10	> 10	> 10	> 10	> 10	> 10	> 10	> 10	> 10	> 10	> 10
CC(=O)C(C(c1ccccc1)N1CCOCC1)N1CCOCC1 (stereo not given)	> 100	> 100	> 100	38.9	> 100	> 100	> 100	> 100	36.3	> 100	> 100

SMILES	TGI [1] [µM]	TGI [2] [µM]	TGI [3] [µM]	TGI [4] [µM]	TGI [5] [µM]	TGI [6] [µM]	TGI [7] [µM]	TGI [8] [µM]	TGI [9] [µM]	TGI [10] [µM]	TGI [11] [µM]
COC(=O)C1=C(OC(=O)/C(=C/c2ccccc2)c2ccc(Cl)cc2Cl)C(C(=O)OC)[C@@]2(O)[C@@H](C(=O)OC)[C@H](C)C[C@@H]1[C@@H]2C(=O)OC (stereo not given in full)	> 100	> 100	> 100	> 100	> 100	> 100	> 100	> 100	> 100	> 100	> 100
CCOC(=O)c1sc(=S)n(-c2ccc(Cl)cc2)c1-n1cc(-c2ccccc2)c(C#N)c1N	85.9	47.1	43.5	> 100	32.7	22.7	> 100	> 100	> 100	> 100	31.2
COc1ccc(/C=C2\N=C(N3CCCCC3)NC2=O)cc1	> 100	> 100	> 100	> 100	> 100	> 100	> 100	> 100	–	–	> 100
Cc1ccc(C(=O)O)c(/C=C2\Cc3ccc(C)cc3C2=O)c1	> 100	> 100	85.2	> 100	> 100	> 100	> 100	98.6	> 100	> 100	> 100
CS(=O)(=O)Nc1ccc2ccccc2c1-c1c(NS(C)(=O)=O)ccc2ccccc12	> 25	> 25	> 25	> 25	> 25	> 25	> 25	> 25	> 25	> 25	> 25
CC(=O)SCCC(NC(=S)Nc1ccccc1)P(=O)(Oc1ccccc1)Oc1ccccc1 (stereo not given)	> 100	> 100	> 100	> 100	> 100	> 100	> 100	> 100	> 100	> 100	> 100
O=C(O)CO[C@@]12C#C/C=C\C#C[C@@H]3N(C(=O)Oc4ccccc4)c4ccccc4[C@]14O[C@@]34CCC2	26.5	> 100	> 100	> 100	54.8	> 100	> 100	> 100	> 100	92.9	> 100
C#CCn1c(=O)c(I)cn(/C(=C/C(=O)OCC)C(=O)OCC)c1=O	10.5	> 84	47.7	8.11	32.1	21.4	3.59	3.89	49.8	–	3.37
N#CSCC(Cl)=CCl (mixture of isomers)	> 100	> 100	> 100	> 100	> 100	> 100	> 100	> 100	> 100	> 100	> 100
Cc1n(CC(C)C)c2c([n+]1C)C(=O)c1ccccc1C2=O	0.576	> 100	1.27	0.156	0.499	1.02	0.23	0.437	1.26	> 100	4.44
S=C(N/N=C/c1ccccn1)N1CCCCC1	0.575	< 0.0382	6.97	0.188	> 43.1	> 24.1	10.9	0.264	0.457	45.6	> 100
COC1(OC)N=C(N)C2(C#N)C(c3ccccc3)NC3=C(CCC3)C12C#N (stereo not given)	> 100	> 100	> 100	> 100	> 100	> 100	> 100	> 100	> 100	–	> 100
NC(=Nc1ccccc1Cl)c1ccccc1N	> 100	> 100	> 100	> 100	> 100	> 100	> 100	> 100	> 100	> 100	86.5
CCOC(=O)/C=C(\C(=O)OCC)n1cc(C)c(=O)n(Cc2cn(CCCCOC(C)=O)nn2)c1=O	29.9	57	17.1	30.5	37	53.1	27.6	7.32	26	9.01	4.7
CC(=O)OCC1OC(N2C(C)=C(C(C)=O)C(c3ccc(Cl)cc3)C(C#N)=C2S)C(OC(C)=O)C(OC(C)=O)C1OC(C)=O (stereo not given)	60.6	> 100	> 100	> 100	> 100	> 100	> 100	> 100	> 100	> 100	> 100
COc1ccc2c(c1)/C(=C\c1c(Cl)[nH]c3cc(C)c(OC)cc13)C(=O)N2	15.9	4.04	> 100	20.6	5.55	16.2	6.36	2.46	8.7	27.7	22.4
Nn1c(C23CC4CC(CC(C4)C2)C3)n[nH]c1=S	> 100	> 100	> 100	–	> 100	> 100	> 100	> 100	> 100	> 100	> 100
OC(CNc1ccccn1)c1ccccc1 (stereo not given)	> 100	> 100	> 100	> 100	> 100	> 100	> 100	> 100	> 100	> 100	> 100
